One assay addresses Protein S100-A4 (Homo sapiens, UniProt P26447). Description: human S100A4 peptide interaction inhibition curves – biochemical, fluorescence polarization, cherry-picked hits, dose response (AID 687001). The class given is functional. For orientation: In fluorescence polarisation assays a small probe gives low polarisation when free and higher when bound to something large.
Assay [1] in a line: activation of miR-122 Renilla sensor silencing – cell-based, Huh7 psiCHECK-miR122, Renilla luciferase, cherry-picked, dose response (AID 651956).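 Note: huh7 hepatoma cells stably carrying a psiCHECK-2 miR-122 sensor plasmid; renilla luciferase signal reporting endogenous miR-122 activity after 48 h compound exposure.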 In kind it is functional.
Assay [2] in a line: mouse fibroblast viability loss – cell-based, cherry-pick samples, set 2, cytotoxicity control for T. cruzi growth inhibitor project, dose response (AID 651817). The class given is functional. The conditions noted are these: NIH3T3.
For assay [3], the target named is Palmitoyl-protein thioesterase ABHD10, mitochondrial (Mus musculus, UniProt Q6PE15). Kind of assay: Late stage assay provider results from the probe development effort to identify inhibitors of PME-1: fluorescence-based dose response biochemical gel-based competitive Activity-Based Protein Profiling (ABPP) inhibition of ABHD10 Set 1. In kind it is functional.
Assay [4] is described as follows: Inhibition of T. cruzi Tulahuen strain amastigotes in L-6 muscle cells Measured in Cell-Based and Microorganism Combination System Using Plate Reader - 2138-03_Inhibitor_Dose_CherryPick_Activity. In kind it is functional. Conditions: Rattus norvegicus, L6.
Assay [5] is described as follows: L6 myocyte viability loss – cell-based, plate reader, cherry-pick, cytotoxicity control, dose response (AID 651896). In kind it is functional.
Assay [6] is described as follows: Inhibition of Plasmodium falciparum NF54 Measured in Cell-Based System Using Plate Reader - 2138-11_Inhibitor_Dose_CherryPick_Activity. The class given is functional.
A short description of assay [7]: antileishmanial activity on axenic amastigotes – plate reader, cherry pick, dose response (AID 651891). The class given is functional, cell-based. Conditions: Leishmania donovani.
The nature of assay [8]: African trypanosome bloodstream form growth inhibition – STIB900 strain, plate reader, cherry pick, dose response (AID 651893). The class given is functional, cell-based, Trypanosoma brucei rhodesiense. The conditions noted are these: Trypanosoma brucei.
The target of assay [9] is T1, Sentrin-specific protease 1 (Homo sapiens, UniProt Q9P0U3). Kind of assay: SENP1 catalytic domain blockers, concentration series – biochemical, kinetic FRET, dose response (AID 651697). The class given is functional. Conditions: read-out: IC50_Mean.
Assay [10] deals with T1, Sentrin-specific protease 1. Description: Dose response confirmation of small molecule inhibitors of the catalytic domain of the SUMO protease, SENP1 in a FRET assay. The class given is functional. The conditions noted are these: read-out: IC50_Mean.

Active and inactive are the calls of the source. Unless noted, no cut-off for these calls is given here.

T1 sequence (Q9P0U3 whole entry, the tested form may be a part): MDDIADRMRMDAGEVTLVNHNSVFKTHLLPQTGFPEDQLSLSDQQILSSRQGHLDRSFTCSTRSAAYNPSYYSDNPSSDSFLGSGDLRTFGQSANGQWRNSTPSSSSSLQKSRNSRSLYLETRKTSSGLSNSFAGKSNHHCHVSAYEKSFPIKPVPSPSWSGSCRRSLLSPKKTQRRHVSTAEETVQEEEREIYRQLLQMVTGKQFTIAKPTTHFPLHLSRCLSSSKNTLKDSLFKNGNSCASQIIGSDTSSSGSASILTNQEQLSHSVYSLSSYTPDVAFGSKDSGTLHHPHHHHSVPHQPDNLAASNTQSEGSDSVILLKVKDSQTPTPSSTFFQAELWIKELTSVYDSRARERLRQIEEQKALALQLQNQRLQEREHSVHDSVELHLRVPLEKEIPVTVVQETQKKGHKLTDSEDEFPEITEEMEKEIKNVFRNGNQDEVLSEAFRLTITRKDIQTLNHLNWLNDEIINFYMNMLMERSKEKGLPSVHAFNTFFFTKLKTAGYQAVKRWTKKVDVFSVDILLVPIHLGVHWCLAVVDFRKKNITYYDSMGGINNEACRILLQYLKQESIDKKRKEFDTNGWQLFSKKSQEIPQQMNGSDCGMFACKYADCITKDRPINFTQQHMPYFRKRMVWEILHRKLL
Chain of Palmitoyl-protein thioesterase ABHD10, mitochondrial (Q6PE15 whole entry): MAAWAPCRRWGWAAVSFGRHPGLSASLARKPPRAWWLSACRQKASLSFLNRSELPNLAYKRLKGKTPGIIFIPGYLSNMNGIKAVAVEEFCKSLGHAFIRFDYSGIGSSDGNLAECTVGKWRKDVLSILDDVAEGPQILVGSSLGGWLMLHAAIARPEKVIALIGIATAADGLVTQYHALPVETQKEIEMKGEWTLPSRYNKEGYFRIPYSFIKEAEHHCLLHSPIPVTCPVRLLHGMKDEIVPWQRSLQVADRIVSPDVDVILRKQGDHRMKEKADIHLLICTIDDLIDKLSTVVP
Chain of Protein S100-A4 (P26447 whole entry): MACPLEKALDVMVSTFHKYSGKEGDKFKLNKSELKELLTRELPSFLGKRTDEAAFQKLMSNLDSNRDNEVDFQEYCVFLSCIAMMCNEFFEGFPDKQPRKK

Consider `O=C1C(N2CCOCC2)=Cc2cccc3cccc1c23`, for which the AC50 – broadly, the concentration giving half of the maximal activity seen – on Protein S100-A4 was 1.09 µM (active).

On to `C[C@@H]1CN([C@H](C)CO)S(=O)(=O)c2ccc(/C=C/c3ccccc3)cc2O[C@@H]1CN(C)C(=O)c1cccnc1`, for which the AC50 in [1] was 2.93 µM (active).

In the case of `Cc1ccc(S(=O)(=O)N(C)C[C@@H]2Oc3c(NC(=O)c4nc5ccccc5s4)cccc3C(=O)N([C@H](C)CO)C[C@@H]2C)cc1`, the AC50 in [2] was 24.8 µM (active).

As to `CCCOC(=O)N1C(=O)[C@@](CC)(c2ccc(C)cc2)N1C(=O)OCCC`, in assay [3], the IC50 is 0.012 µM (active).

As to `C[C@@H]1CN([C@H](C)CO)C(=O)c2cccc(NC(=O)c3ccncc3)c2O[C@@H]1CN(C)Cc1ccc(Cl)c(Cl)c1`, the IC50 in assay [4] was 5.59 µM (inactive); in assay [5], > 100 µM (inactive); in assay [6], 5.59 µM (inactive); in assay [7], > 100 µM (inactive); in assay [8], 11.1 µM (inactive).

For the molecule `COc1cc([C@H]2c3c(cc(OC)c(O)c3OC)C[C@@H](CO)[C@@H]2CO[C@@H]2O[C@H](CO)[C@@H](O)[C@H](O)[C@H]2O)cc(OC)c1O`, the IC50 was 24.4 µM (inactive) in assay [9] and 14.2 µM (active) in assay [10].

The record behind these values is ChEMBL document CHEMBL1201862, “PubChem BioAssay data set” (2004).
